The results in this text go back to patent US9637483B2, “Heterocyclic compound” (TAKEDA PHARMACEUTICAL COMPANY LIMITED, priority 2013, dated 2017).

The structures appear in SMILES notation.

What all share (assay type): biochemical
The target of one assay is T1, JAK3 (Homo sapiens, UniProt P52333).
T1 construct: purchased Invitrogen
T1 sequence (P52333 1-1124): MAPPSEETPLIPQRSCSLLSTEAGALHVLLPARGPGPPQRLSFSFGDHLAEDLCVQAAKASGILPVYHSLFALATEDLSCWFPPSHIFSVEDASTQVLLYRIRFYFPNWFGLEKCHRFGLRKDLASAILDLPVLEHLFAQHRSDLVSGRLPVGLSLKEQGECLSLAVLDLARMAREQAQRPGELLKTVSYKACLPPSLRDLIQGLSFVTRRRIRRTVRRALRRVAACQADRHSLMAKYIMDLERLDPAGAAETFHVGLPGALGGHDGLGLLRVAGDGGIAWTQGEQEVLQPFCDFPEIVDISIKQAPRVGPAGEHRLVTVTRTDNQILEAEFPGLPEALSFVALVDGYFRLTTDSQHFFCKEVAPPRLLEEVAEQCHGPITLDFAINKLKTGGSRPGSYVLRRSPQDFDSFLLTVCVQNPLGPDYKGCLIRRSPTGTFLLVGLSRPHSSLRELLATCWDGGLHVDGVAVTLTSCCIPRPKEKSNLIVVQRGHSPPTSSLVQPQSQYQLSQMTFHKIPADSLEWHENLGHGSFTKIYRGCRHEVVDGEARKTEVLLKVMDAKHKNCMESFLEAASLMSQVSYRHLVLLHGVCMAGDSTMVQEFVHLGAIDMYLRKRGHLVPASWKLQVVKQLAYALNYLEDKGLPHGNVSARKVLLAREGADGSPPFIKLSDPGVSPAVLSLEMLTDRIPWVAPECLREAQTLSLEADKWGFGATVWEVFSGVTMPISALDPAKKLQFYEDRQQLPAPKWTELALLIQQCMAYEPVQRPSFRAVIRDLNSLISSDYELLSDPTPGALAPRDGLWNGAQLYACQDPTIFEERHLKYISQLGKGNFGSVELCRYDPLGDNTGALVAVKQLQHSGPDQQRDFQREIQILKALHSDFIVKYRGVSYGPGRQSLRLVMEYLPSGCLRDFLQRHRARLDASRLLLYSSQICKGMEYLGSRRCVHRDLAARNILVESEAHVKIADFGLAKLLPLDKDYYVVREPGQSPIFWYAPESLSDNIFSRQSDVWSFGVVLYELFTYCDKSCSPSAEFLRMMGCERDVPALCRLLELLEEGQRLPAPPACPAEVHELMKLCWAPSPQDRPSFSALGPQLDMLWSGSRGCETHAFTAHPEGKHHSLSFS
Briefly: JAK3 enzyme inhibition test (LANCE method). The conditions noted are these: 1 μM test compound; for inhibition at 1 µM: read-out: JAK3 enzyme inhibitory activity (%, 1 μM). In outline:
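TR-FRET (LANCE) read: 1 h room-temperature reaction, EDTA quench, Eu-anti-phosphotyrosine antibody, emission 665 nm after 340 nm excitation. Added solutions held 12 ng/mL JAK3, 300 nM ULight-JAK1 substrate and 15 μM ATP (pH 7.5 HEPES). Activity expressed against no-enzyme wells defined as full inhibition.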
In general terms: Time-resolved FRET reads energy transfer from a long-lived donor to a nearby acceptor.

For another assay, the target named is T2, TYK2 (Homo sapiens, UniProt P29597).
T2 construct: purchased Invitrogen
Briefly: TYK2 enzyme inhibition test (LANCE method). The conditions noted are these: 1 μM test compound; for inhibition at 1 µM: read-out: TYK2 enzyme inhibitory activity (%, 1 μM). In outline:
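TR-FRET (LANCE) readout: after 1 h room-temperature kinase reaction, EDTA plus 4 nM Eu-labelled anti-phosphotyrosine antibody added, signal at 665 nm (340 nm excitation). Reaction combined TYK2, ULight-JAK1 substrate and ATP, prepared at 375 ng/mL, 300 nM and 30 μM before addition, in pH 7.5 HEPES/MgCl2 buffer; enzyme-free wells define full inhibition.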

A further assay concerns the target T3, JAK1 (Homo sapiens, UniProt P23458).
T3 construct: purchased Invitrogen
Briefly: JAK1 enzyme inhibition test (LANCE method). Conditions: 1 μM test compound; for inhibition at 1 µM: read-out: JAK1 enzyme inhibitory activity (%, 1 μM). In outline: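 Inhibition expressed against no-enzyme wells (100% inhibition), from time-resolved fluorescence at 665 nm after Eu-anti-phosphotyrosine antibody/EDTA detection. Kinase reaction ran 1 h at room temperature, pH 7.5 HEPES buffer, ULight-JAK1 substrate and ATP diluted to 300 nM and 150 μM before addition.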

The target of the next assay is T4, JAK2 (Homo sapiens, UniProt O60674).
T4 construct: purchased Invitrogen
Briefly: JAK2 enzyme inhibition test (LANCE method). Conditions: 1 μM test compound; for inhibition at 1 µM: read-out: JAK2 enzyme inhibitory activity (%, 1 μM). In a few lines:
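TR-FRET (LANCE) read-out, ex 340/em 665 nm with 100 μs delay, after 1 hr room-temperature detection with europium anti-phosphotyrosine antibody and 20 mM EDTA. The preceding 1 hr kinase reaction combined JAK2, ULight-JAK1 substrate and ATP, added as 6 ng/mL, 300 nM and 45 μM solutions; enzyme-free wells defined 100% inhibition.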

T2 sequence (P29597 whole entry): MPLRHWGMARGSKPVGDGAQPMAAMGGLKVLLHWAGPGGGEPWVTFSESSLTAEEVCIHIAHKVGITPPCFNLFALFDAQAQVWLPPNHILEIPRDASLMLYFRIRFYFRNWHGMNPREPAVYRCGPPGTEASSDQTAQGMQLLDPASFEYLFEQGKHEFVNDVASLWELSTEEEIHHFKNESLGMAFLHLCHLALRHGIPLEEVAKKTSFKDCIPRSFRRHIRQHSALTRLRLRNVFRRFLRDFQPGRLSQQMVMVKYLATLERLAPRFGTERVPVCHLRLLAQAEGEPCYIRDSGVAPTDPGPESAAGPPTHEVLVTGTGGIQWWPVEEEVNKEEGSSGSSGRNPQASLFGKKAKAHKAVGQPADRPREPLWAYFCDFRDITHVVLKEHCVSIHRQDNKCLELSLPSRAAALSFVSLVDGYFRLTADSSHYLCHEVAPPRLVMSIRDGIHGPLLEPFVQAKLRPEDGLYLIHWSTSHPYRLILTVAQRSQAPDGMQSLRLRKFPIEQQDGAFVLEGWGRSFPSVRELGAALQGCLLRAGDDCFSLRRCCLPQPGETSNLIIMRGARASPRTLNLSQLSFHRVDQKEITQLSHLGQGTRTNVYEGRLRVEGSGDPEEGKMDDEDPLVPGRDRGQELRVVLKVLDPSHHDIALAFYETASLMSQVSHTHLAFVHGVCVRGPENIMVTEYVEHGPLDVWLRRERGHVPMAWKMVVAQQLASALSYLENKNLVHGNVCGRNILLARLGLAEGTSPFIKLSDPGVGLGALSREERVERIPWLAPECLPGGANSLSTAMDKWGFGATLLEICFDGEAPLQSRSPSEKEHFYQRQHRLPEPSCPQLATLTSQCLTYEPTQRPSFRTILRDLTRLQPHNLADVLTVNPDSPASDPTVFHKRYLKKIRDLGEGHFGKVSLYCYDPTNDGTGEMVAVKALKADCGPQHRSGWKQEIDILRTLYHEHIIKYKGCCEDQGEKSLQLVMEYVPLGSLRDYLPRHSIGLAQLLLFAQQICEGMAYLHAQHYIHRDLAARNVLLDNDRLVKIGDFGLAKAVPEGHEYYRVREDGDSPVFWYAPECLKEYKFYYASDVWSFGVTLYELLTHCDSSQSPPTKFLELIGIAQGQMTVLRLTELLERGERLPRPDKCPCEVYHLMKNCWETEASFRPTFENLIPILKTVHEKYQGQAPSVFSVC
T4 sequence (O60674 whole entry): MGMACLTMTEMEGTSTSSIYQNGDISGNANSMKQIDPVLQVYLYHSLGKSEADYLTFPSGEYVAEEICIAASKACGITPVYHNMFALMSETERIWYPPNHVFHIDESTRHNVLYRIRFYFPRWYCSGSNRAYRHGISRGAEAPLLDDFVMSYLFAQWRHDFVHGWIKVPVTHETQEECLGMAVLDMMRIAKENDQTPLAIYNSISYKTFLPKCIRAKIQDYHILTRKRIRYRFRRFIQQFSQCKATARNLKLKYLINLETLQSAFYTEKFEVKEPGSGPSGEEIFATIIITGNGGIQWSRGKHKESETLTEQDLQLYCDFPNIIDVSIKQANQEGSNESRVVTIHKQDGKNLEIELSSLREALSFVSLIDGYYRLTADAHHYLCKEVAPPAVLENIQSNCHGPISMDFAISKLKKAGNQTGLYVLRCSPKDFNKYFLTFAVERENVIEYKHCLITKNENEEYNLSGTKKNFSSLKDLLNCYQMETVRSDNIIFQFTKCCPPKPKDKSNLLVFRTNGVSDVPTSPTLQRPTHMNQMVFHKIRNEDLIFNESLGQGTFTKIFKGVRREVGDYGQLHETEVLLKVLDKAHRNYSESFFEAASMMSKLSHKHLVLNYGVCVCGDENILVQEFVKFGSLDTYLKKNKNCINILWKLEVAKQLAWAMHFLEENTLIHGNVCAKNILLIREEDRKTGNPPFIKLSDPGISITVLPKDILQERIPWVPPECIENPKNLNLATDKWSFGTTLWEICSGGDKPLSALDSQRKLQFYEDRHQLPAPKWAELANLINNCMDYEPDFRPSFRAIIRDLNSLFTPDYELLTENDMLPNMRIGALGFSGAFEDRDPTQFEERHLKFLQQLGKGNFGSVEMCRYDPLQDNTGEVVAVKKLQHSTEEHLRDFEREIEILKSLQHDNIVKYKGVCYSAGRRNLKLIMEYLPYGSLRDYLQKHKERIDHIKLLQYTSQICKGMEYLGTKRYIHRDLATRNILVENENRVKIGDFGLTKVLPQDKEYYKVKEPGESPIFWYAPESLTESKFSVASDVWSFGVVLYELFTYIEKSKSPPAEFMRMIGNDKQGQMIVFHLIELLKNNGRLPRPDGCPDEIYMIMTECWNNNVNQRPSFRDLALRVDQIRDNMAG
T3 sequence (P23458 whole entry): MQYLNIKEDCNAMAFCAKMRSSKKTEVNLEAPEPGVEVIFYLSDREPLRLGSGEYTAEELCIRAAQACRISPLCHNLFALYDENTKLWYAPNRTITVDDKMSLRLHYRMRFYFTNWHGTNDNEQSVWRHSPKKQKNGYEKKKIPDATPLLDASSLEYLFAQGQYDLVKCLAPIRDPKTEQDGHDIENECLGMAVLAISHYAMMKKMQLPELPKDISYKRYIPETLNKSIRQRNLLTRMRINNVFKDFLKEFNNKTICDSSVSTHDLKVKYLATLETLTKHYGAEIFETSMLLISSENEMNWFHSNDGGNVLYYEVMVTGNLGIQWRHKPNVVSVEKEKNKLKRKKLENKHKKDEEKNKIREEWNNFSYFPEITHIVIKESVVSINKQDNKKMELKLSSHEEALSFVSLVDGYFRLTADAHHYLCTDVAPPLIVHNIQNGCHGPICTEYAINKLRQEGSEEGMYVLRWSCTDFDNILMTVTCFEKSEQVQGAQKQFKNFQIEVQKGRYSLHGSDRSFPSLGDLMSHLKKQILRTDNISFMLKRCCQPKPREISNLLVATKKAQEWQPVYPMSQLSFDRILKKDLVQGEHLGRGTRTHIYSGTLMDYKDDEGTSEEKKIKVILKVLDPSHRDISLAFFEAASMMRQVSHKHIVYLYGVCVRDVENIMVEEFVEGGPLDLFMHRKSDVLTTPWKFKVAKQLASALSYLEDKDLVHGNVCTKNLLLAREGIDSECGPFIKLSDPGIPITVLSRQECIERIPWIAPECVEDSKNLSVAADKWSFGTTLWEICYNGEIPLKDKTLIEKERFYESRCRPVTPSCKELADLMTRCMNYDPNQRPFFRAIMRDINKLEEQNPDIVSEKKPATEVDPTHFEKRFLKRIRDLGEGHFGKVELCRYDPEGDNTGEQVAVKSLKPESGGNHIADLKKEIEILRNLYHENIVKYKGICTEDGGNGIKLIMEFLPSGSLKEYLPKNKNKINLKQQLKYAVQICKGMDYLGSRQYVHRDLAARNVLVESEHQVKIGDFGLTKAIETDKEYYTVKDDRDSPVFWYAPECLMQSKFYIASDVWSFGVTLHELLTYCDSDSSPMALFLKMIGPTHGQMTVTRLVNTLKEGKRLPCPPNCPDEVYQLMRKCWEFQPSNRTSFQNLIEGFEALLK

Take `CC(C)[C@H](C)n1cc(-c2cc(N3CCN4CCCC4C3)n(C)n2)c2[nH]nc(N)c2c1=O` (stereo partly drawn) [Example 61, 3-amino-7-(5-(hexahydropyrrolo[1,2-a]pyrazin-2 (H)-yl)-1-methyl-1H-pyrazol-3-yl)-5-((2S)-3-methylbutan-2-yl)-1,5-dihydro-4H-pyrazolo[4,3-c]pyridin-4-one]: on JAK3, the “JAK3 enzyme inhibitory activity (%, 1 μM)” value was found to be 100%. Further, the “TYK2 enzyme inhibitory activity (%, 1 μM)” value at TYK2 came to 99%. For the same compound, the “JAK1 enzyme inhibitory activity (%, 1 μM)” value at JAK1 turned out to be 97%. In addition, on JAK2, the “JAK2 enzyme inhibitory activity (%, 1 μM)” value is listed as 99%.

For the compound `CC(C)[C@H](C)n1cc(-c2cc(C3CCOCC3)n(C)n2)c2[nH]nc(N)c2c1=O` [Example 58], the inhibition at 1 µM was found to be 100% at JAK3, 100% at TYK2, 97% on JAK1 and 99% on JAK2.

For `CN(C)C[C@H]1CCCN1c1cc(-c2cn(-c3c(F)cccc3F)c(=O)c3c(N)n[nH]c23)nn1C` [Example 126, 3-amino-5-(2,6-difluorophenyl)-7-(5-((2R)-2-((dimethylamino)methyl)pyrrolidin-1-yl)-1-methyl-1H-pyrazol-3-yl)-1,5-dihydro-4H-pyrazolo[4,3-c]pyridin-4-one], the inhibition at 1 µM on JAK3 is 99%; on TYK2 it was 98%; at JAK1, 92%; at JAK2, 98%.

In the case of `CN1CCCN(c2cc(-c3cn(C(C4CC4)C4CC4)c(=O)c4c(N)n[nH]c34)nn2C)CC1` [Example 150, 3-amino-5-(dicyclopropylmethyl)-7-(1-methyl-5-(4-methyl-1,4-diazepan-1-yl)-1H-pyrazol-3-yl)-1,5-dihydro-4H-pyrazolo[4,3-c]pyridin-4-one], the inhibition at 1 µM was 101% at JAK3, 102% at TYK2, 98% on JAK1 and 100% at JAK2.

Turning to `COC(C)(C)c1cc(-c2cn([C@@H](C)C(C)C)c(=O)c3c(N)n[nH]c23)nn1C` [Example 109, 3-amino-7-(5-(2-methoxypropan-2-yl)-1-methyl-1H-pyrazol-3-yl)-5-((2S)-3-methylbutan-2-yl)-1,5-dihydro-4H-pyrazolo[4,3-c]pyridin-4-one], the inhibition at 1 µM on JAK3 amounted to 99%; at TYK2, 99%; at JAK1, 98%; on JAK2, 99%.

On to `CC(C)C(C#N)n1cc(-c2cc(N3CCOCC3)n(C)n2)c2[nH]nc(N)c2c1=O` (centres unmarked) [Example 114, 2-(3-amino-7-(1-methyl-5-(morpholin-4-yl)-1H-pyrazol-3-yl)-4-oxo-1,4-dihydro-5H-pyrazolo[4,3-c]pyridin-5-yl)-3-methylbutanenitrile], for which, at JAK3, the “JAK3 enzyme inhibitory activity (%, 1 μM)” value stood at 84%. Besides, the “TYK2 enzyme inhibitory activity (%, 1 μM)” value on TYK2 (1 µM) was 95%. Further, the “JAK1 enzyme inhibitory activity (%, 1 μM)” value on JAK1 turned out to be 68%. The “JAK2 enzyme inhibitory activity (%, 1 μM)” value on JAK2 was determined as 74%.

For the compound `CO[C@H]1CCN(c2cc(-c3cn([C@@H](C)C(C)C)c(=O)c4c(N)n[nH]c34)nn2C)C1` [Example 25, 3-amino-7-(5-((3S)-3-methoxypyrrolidin-1-yl)-1-methyl-1H-pyrazol-3-yl)-5-((2S)-3-methylbutan-2-yl)-1,5-dihydro-4H-pyrazolo[4,3-c]pyridin-4-one], the inhibition at 1 µM amounted to 99% on JAK3, 100% on TYK2, 98% on JAK1 and 98% at JAK2.

For the compound `CC(C)N(C)c1cc(-c2cn(-c3c(F)cccc3C#N)c(=O)c3c(N)n[nH]c23)nn1C` [Example 122, 2-(3-amino-7-(5-(isopropyl(methyl)amino)-1-methyl-1H-pyrazol-3-yl)-4-oxo-1,4-dihydro-5H-pyrazolo[4,3-c]pyridin-5-yl)-3-fluorobenzonitrile], the inhibition at 1 µM on JAK3 was found to be 97%; at TYK2, 101%; at JAK1, 97%; on JAK2, 93%.
